Reference: patent publication US12384753B2, “17-beta-hydroxysteroid dehydrogenase type 13 inhibitors and methods of use thereof” (Enanta Pharmaceuticals, Inc., priority 2021, dated 2025)

Target: Recombinant human HSD17B13 (Homo sapiens (Human), UniProt Q7Z5P4)
Assay: HSD17B13 rapid-fire mass spectrometry assay (RF/MS assay)
Type: biochemical
Conditions: inhibition of HSD17B13; LTB4 10 μM, NAD+ 0.5 mM, RT 3 h; IC50 ranges A-E
Outline: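 Sf9-expressed human HSD17B13 (80 nM) with 10 μM LTB4 and 0.5 mM NAD+, incubated with compound (0–100 μM) for 3 h at RT in Tris pH 7.5/BSA/Tween-20. After formic acid quench, LTB4 conversion to 12-oxo-LTB4 measured by RapidFire MS/MS. IC50 from normalised residual activity, duplicates.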

Recombinant human HSD17B13, sequence (Q7Z5P4 20-300): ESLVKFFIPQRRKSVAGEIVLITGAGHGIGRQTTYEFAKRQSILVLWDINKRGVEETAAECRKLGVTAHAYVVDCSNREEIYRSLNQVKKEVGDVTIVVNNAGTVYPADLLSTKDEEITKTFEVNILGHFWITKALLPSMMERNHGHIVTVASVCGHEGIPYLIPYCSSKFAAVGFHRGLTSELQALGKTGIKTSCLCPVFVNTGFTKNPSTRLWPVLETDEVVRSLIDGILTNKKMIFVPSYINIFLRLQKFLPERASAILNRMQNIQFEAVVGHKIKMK

| IC50 [nM] | Structure (SMILES) |
| --- | --- |
| 1000 to 100000 | COc1cc(CC(=O)O)ccc1NS(=O)(=O)c1csc(C#Cc2cccc(OC(F)(F)F)c2)n1 [Example 401, 2-(3-methoxy-4-((2-((3-(trifluoromethoxy)phenyl)ethynyl)thiazole)-4-sulfonamido)phenyl)acetic acid] |
| 100 to 500 | COc1ccc(OC(F)(F)F)cc1C#Cc1nc(S(=O)(=O)Nc2ccc(C(=O)O)cc2OC)cs1 [Example 402] |
| 500 to 1000 | COc1cc(C(=O)O)ccc1NS(=O)(=O)c1csc(-c2cccc3cnn(C)c23)n1 [Example 403, 3-methoxy-4-((2-(1-methyl-1H-indazol-7-yl)thiazole)-4-sulfonamido)benzoic acid] |
| < 100 | COc1cc(C(=O)O)ccc1NS(=O)(=O)c1csc(-c2ccc(-c3ccc4ccccc4c3)cc2)n1 [Example 404] |
| 100 to 500 | COc1cc(C(=O)O)ccc1NS(=O)(=O)c1csc(-c2ccc3cnccc3c2)n1 [Example 405] |
| 100 to 500 | C=C(COC)c1ccc(-c2nc(S(=O)(=O)Nc3ccc(C(=O)O)cc3OC)cs2)cc1 [Example 406, 3-methoxy-4-((2-(4-(3-methoxyprop-1-en-2-yl)phenyl)thiazole)-4-sulfonamido)benzoic acid] |
| 500 to 1000 | COc1cc(C(=O)O)ccc1NS(=O)(=O)c1cccc(-c2ccc(F)cc2)n1 [Example 411, 4-((6-(4-fluorophenyl)pyridine)-2-sulfonamido)-3-methoxybenzoic acid] |
| 100 to 500 | COc1cc(C(=O)O)ccc1NS(=O)(=O)c1cccc(-c2ccc(C3CCCCC3)cc2)n1 [Example 412] |
| < 100 | COc1cc(C(=O)O)ccc1NS(=O)(=O)c1coc(-c2ccc(C)cc2)n1 [Example 413] |
| < 100 | COc1cc(C(=O)O)ccc1NS(=O)(=O)c1coc(-c2ccc(C(F)(F)F)cc2)n1 [Example 414] |
| < 100 | COc1ccc(-c2nc(S(=O)(=O)Nc3ccc(C(=O)O)cc3OC)co2)cc1 [Example 415] |
| < 100 | COc1cc(C(=O)O)ccc1NS(=O)(=O)c1coc(-c2ccc(OC(F)(F)F)cc2)n1 [Example 416] |
| 100 to 500 | COc1cc(C(=O)O)ccc1NS(=O)(=O)c1coc(-c2ccc(C3CCCCC3)cc2)n1 [Example 419] |
| 100 to 500 | COc1cc(C(=O)O)ccc1NS(=O)(=O)c1coc(-c2ccc(C3CCC(C)(C)CC3)cc2)n1 [Example 420] |
| 100 to 500 | COc1cc(C(=O)O)ccc1NS(=O)(=O)c1csc(-c2ccc(C3CCCC(OC)C3)cc2)n1 (stereo not drawn) [Example 426, 3-methoxy-4-((2-(4-(3-methoxycyclohexyl)phenyl)thiazole)-4-sulfonamido)benzoic acid] |
| 100 to 500 | COc1cc(C(=O)O)ccc1NS(=O)(=O)c1cnc(-c2ccc(-c3ccc4c(c3)CCCC4)cc2)s1 [Example 427] |
| 100 to 500 | COc1cc(C(=O)O)ccc1NS(=O)(=O)c1ccc(-c2ccc(C3CCC(C)(C)CC3)cc2)s1 [Example 428, 4-((5-(4-(4,4-dimethylcyclohexyl)phenyl)thiophene)-2-sulfonamido)-3-methoxybenzoic acid] |
| 100 to 500 | COc1cc(C(=O)O)ccc1NS(=O)(=O)c1ccc(-c2ccc(C3=CCC(C)(C)CC3)cc2)s1 [Example 429, 4-((5-(4′,4′-dimethyl-2′,3′,4′,5′-tetrahydro-[1,1′-biphenyl]-4-yl)thiophene)-2-sulfonamido)-3-methoxybenzoic acid] |

| IC50 [nM] | Structure (SMILES) |
| --- | --- |
| 100 to 500 | COc1cc(C(=O)O)ccc1NS(=O)(=O)c1ccc(-c2ccc(C3(O)CCC(C)(C)CC3)cc2)s1 [Example 430, 4-((5-(4-(1-hydroxy-4,4-dimethylcyclohexyl)phenyl)thiophene)-2-sulfonamido)-3-methoxybenzoic acid] |
| 500 to 1000 | COc1cc(C(=O)O)ccc1NS(=O)(=O)c1cncc(-c2ccc(C3CCCCC3)cc2)c1 [Example 433, 4-((5-(4-cyclohexylphenyl)pyridine)-3-sulfonamido)-3-methoxybenzoic acid] |
| 500 to 1000 | COc1cc(C(=O)O)ccc1NS(=O)(=O)c1cncc(C#Cc2cccc(OC(F)(F)F)c2)c1 [Example 434, 3-methoxy-4-((5-((3-(trifluoromethoxy)phenyl)ethynyl)pyridine)-3-sulfonamido)benzoic acid] |
| 500 to 1000 | COc1cc(C(=O)O)ccc1NS(=O)(=O)c1cc(-c2ccc(C3CCCCC3)cc2)ccc1F [Example 435] |
| < 100 | COc1cc(C(=O)O)ccc1NS(=O)(=O)c1cccc(-c2ccc(C3CCCCC3)cc2)c1F [Example 436] |
| 100 to 500 | COc1cc(C(=O)O)ccc1NS(=O)(=O)c1ccc(F)c(-c2ccc(C3CCCCC3)cc2)c1 [Example 437] |
| < 100 | COc1cc(C(=O)O)ccc1NS(=O)(=O)c1cc(F)cc(-c2ccc(C3CCCCC3)cc2)c1 [Example 438] |
| 100 to 500 | COC/C=C/c1ccc(-c2ncc(S(=O)(=O)Nc3ccc(C(=O)O)cc3OC)s2)cc1 [Example 449, (E)-3-methoxy-4-((2-(4-(3-methoxyprop-1-en-1-yl)phenyl)thiazole)-5-sulfonamido)benzoic acid] |
| < 100 | C=C(c1ccc(-c2ncc(S(=O)(=O)Nc3ccc(C(=O)O)cc3OC)s2)cc1)C1CC1 [Example 450] |
| 100 to 500 | COc1cc(C(=O)O)ccc1NS(=O)(=O)c1cnc(-c2ccc(C3=CCC(c4ccccc4)CC3)cc2)s1 (stereo not drawn) [Example 451, 3-methoxy-4-((2-(2′,3′,4′,5′-tetrahydro-[1,1′:4′,1″-terphenyl]-4-yl)thiazole)-5-sulfonamido)benzoic acid] |
| 100 to 500 | COc1cc(C(=O)O)ccc1NS(=O)(=O)c1cnc(-c2ccc(C3CCC(c4ccccc4)CC3)cc2)s1 (stereo not drawn) [Example 452, 3-methoxy-4-((2-(4-(4-phenylcyclohexyl)phenyl)thiazole)-5-sulfonamido)benzoic acid] |
| 100 to 500 | COc1cc(C(=O)O)ccc1NS(=O)(=O)c1cnc(-c2ccc(C3CCC(C)(C)CC3)cc2)s1 [Example 453] |
| 100 to 500 | COc1cc(C(=O)O)ccc1NS(=O)(=O)c1csc(C2=CCC(C)(C)CC2)n1 [Example 454, 4-((2-(4,4-dimethylcyclohex-1-en-1-yl)thiazole)-4-sulfonamido)-3-methoxybenzoic acid] |
| 100 to 500 | COc1cc(C(=O)O)ccc1NS(=O)(=O)c1cnc(-c2ccc(C#CC3CCCC3)cc2)s1 [Example 455, 4-((2-(4-(cyclopentylethynyl)phenyl)thiazole)-5-sulfonamido)-3-methoxybenzoic acid] |
| 1000 to 100000 | COc1cc(C(=O)O)ccc1NS(=O)(=O)c1ccc2sc(-c3ccc(C4CCC(C)(C)CC4)cc3)nc2c1 [Example 456, 4-((2-(4-(4,4-dimethylcyclohexyl)phenyl)benzo[d]thiazole)-5-sulfonamido)-3-methoxybenzoic acid] |
| 500 to 1000 | COc1cc(C(=O)O)ccc1NS(=O)(=O)c1csc(C2CCC(C)(C)CC2)n1 [Example 457, 4-((2-(4,4-dimethylcyclohexyl)thiazole)-4-sulfonamido)-3-methoxybenzoic acid] |
| 100 to 500 | COc1cc(C(=O)O)ccc1NS(=O)(=O)N1Cc2nc(-c3ccc(C4CCC(C)(C)CC4)cc3)sc2C1 [Example 458] |

| Structure (SMILES) | IC50 [nM] |
| --- | --- |
| CCOP(=O)(O)c1ccc(NS(=O)(=O)c2csc(C#Cc3cccc(OC(F)(F)F)c3)n2)c(OC)c1 [Example 400, ethyl hydrogen (3-methoxy-4-((2-((3-(trifluoromethoxy)phenyl)ethynyl)thiazole)-4-sulfonamido)phenyl)phosphonate] | 1000 to 100000 |
